Test results taken from patent US12629358B2, “Compound used as RET kinase inhibitor and application thereof” (TYK MEDICINES, INC., priority 2019, dated 2026).
Positions count from the first letter of the chain named. Each block holds one compound with its values, some of them ahead of it.

What was measured:
wild-type RET kinase = wild-type RET kinase (Homo sapiens, UniProt P07949); assay: Enzyme activity test against wild-type RET kinase (33P-ATP filter-binding kinase activity assay); type: biochemical; settings: ATP Km concentration, 10 concentrations
Chain of wild-type RET kinase (P07949 29-1114): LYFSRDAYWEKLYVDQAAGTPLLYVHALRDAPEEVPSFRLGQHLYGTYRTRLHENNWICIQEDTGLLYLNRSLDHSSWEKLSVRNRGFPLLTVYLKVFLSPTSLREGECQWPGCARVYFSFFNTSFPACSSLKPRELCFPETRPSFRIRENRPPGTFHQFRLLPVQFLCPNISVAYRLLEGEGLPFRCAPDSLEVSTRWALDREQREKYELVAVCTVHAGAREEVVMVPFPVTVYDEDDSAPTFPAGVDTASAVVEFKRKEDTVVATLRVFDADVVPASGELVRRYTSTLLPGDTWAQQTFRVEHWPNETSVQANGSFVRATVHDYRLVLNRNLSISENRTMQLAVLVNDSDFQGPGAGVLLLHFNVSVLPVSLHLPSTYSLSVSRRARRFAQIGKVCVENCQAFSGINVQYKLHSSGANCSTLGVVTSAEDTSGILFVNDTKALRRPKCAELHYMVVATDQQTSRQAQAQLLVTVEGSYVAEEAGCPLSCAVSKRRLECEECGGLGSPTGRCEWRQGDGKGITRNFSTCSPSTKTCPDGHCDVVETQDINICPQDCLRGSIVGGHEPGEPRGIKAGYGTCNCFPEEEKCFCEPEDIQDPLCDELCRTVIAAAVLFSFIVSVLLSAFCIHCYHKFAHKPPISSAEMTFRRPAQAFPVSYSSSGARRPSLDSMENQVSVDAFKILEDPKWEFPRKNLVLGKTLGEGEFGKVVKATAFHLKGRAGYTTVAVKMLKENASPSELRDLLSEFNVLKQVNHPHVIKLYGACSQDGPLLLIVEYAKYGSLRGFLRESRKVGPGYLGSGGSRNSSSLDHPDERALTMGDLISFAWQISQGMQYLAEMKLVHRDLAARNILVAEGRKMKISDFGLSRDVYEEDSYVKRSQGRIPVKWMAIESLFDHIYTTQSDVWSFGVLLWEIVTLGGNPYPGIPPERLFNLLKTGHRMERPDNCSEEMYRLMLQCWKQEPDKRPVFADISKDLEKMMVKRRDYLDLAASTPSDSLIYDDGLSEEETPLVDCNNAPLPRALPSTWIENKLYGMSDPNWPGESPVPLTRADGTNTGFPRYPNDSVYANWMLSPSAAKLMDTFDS
Experimental: A biological activity test experiment was conducted below for some compounds of the above Examples and Comparative Example.
[…]. The biological activity screening of the compounds will be determined repeatedly at 10 concentrations.
Each sample was prepared into a solution with a concentration of 10 mM.
The test compound was dissolved in 100% dimethyl sulfoxide to a specific concentration. Integra Viaflo Assist was used to assist DMSO for (continuous) dilution.
Kinase was added to the newly prepared basic reaction buffer
Adding any desired cofactors to the substrate solution.
Adding wild-type RET kinase into the substrate solution and gently mixing;
Acoustic technology (Echo 550; Nanoliter range) was used to feed the compounds in 100% of dimethyl sulfoxide into the kinase reaction mixture and incubated at room temperature for 20 minutes.
33P-ATP (specific activity 10 Ci/l) was added to the reaction mixture to start the reaction.
Incubated at room temperature for 2 hours
Radioactivity was detected by filter-binding method.
Kinase activity data was expressed as the percentage of remaining kinase activity in the test sample compared to the vehicle (dimethyl sulfoxide) reaction. Prism (GRAPHPAD software) was used to obtain IC50 value and curve-fitting.

Ba/F3-KIF5B-RET cells = target: T1, Ba/F3-KIF5B-RET cells (Homo sapiens, UniProt P07949); assay: Cell anti-proliferation experiment (CellTiter-Glo), Ba/F3-KIF5B-RET; type: cell-based; settings: cell viability, 72 h
T1 construct: host or cells: Ba/F3 (BaF3 from RIKEN BRC CELL BANK); the other entry of the earlier key: KIF5B (P33176, Kinesin-1 heavy chain)
T1 sequence (P07949 713-1063 limits assumed): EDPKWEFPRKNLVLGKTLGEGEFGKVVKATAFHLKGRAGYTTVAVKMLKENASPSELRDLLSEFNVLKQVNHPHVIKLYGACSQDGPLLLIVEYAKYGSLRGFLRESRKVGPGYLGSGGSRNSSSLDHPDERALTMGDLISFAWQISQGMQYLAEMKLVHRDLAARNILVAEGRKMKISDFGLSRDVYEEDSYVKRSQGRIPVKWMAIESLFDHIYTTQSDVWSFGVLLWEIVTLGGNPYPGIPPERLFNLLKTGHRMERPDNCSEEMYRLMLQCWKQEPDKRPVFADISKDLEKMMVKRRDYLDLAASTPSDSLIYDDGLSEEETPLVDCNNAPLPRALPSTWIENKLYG
Experimental: (§1) Ba/F3-KIF5B-RET, Ba/F3-KIF5B-RET-V804L and Ba/F3-KIF5B-RET-V804M cells were constructed by PreceDo Pharmaceuticals Co., Ltd.
(§2) Ba/F3-KIF5B-RET, Ba/F3-KIF5B-RET-V804L and Ba/F3-KIF5B-RET-V804M medium: RPMI-1640+10% FBS+1% P/S.
(§3) A 1000× solution of the compound was prepared with DMSO, the compound was diluted to 20 times final concentration with a growth medium, and […] was added.
(§4) The suspended cells were rotated downward, resuscitated in the growth medium, and then counted with a cell counter. The cell suspension was diluted to the desired concentration in the growth medium. 95p L cell suspension was fed to a 96-well plate. 5 μL of 20× compound was added to the […], and the final DMSO concentration per well was 0.1%; incubated at 37° C. with 5% CO2 for 72 h
(§5) The plate was equilibrated to room temperature before measurement, 50 μl of CellTiter-Glo® reagent was added into each well, mixed on a shaker for 2 minutes, incubated at room temperature for 10 minutes, and recorded with Paradigm.
(§6) Cell viability was analyzed using Graphpad 7.0 software according to the formula Cell viability (CV %)=(RLU compound−RLU blank)/(RLU control−RLU blank)*100%, and the corresponding IC50 data were calculated as shown in Table 2

[1] = target: T2, Ba/F3-KIF5B-RET-V804L cells (Homo sapiens, UniProt P07949, V804L); assay: Cell anti-proliferation experiment (CellTiter-Glo), Ba/F3-KIF5B-RET-V804L; type: cell-based; settings: cell viability, 72 h
T2 construct: host or cells: Ba/F3 (BaF3 from RIKEN BRC CELL BANK); the other entry of the earlier key: KIF5B (P33176, Kinesin-1 heavy chain)
T2 sequence (P07949 713-1063 V804L limits assumed): T1 sequence (P07949 713-1063 limits assumed) with V92L
Experimental: as §1, §2, §3, §4, §5, §6

[2] = target: T3, Ba/F3-KIF5B-RET-V804M cells (Homo sapiens, UniProt P07949, V804M); assay: Cell anti-proliferation experiment (CellTiter-Glo), Ba/F3-KIF5B-RET-V804M; type: cell-based; settings: cell viability, 72 h
T3 construct: host or cells: Ba/F3 (BaF3 from RIKEN BRC CELL BANK); the other entry of the earlier key: KIF5B (P33176, Kinesin-1 heavy chain)
T3 sequence (P07949 713-1063 V804M limits assumed): T1 sequence (P07949 713-1063 limits assumed) with V92M
Experimental: as §1, §2, §3, §4, §5, §6

[3] = Metabolism test of drugs: plasma pharmacokinetics after intravenous and intragastric administration; type: in vivo; settings: male, rat, SD rats, PO, 10 mg/kg, plasma
Experimental: Four small molecule compounds of BLU-667, compound C2, compound C4 and compound C8 were administered to SD rats by intravenous and intragastric administration respectively. Blood samples were collected at different time points to determine the concentration of drugs in plasma after administration and calculate the related pharmacokinetics parameters.
The vehicle of BLU-667, C2, C4 and C8 was 10% NMP+49% PEG400+1% Tween80+40% Water. The specific preparation method was as follows: proper amount of tested samples was weighed, dissolved in 10% NMP+49% PEG400+1% Tween80+40% Water, mixed well by vortex for later use.
LC-MS/MS was used by the analysis department of the experimental organization to detect and analyze the prepared solution of sample for test.
Healthy male SD rats were used in this research. Animal weight: 150-200 g. All animals fasted before administration, and resumed feeding 4 hours after administration.
Time points for blood collection were: • Intravenous administration (groups 1, 3 and 5): 0.0833, 0.25, 0.5, 1, 2, 4, 8, 12 and 24 hours after administration. (±2 min at time point ≤2 hr, ±15 min at other points.) • Oral administration: (groups 2, 4, 6 and 7): 0.25, 0.5, 1, 2, 4, 8, 12 and 24 hours after administration. (±2 m at time point […] at other points.)
About 0.1 mL of blood was collected from each animal through jugular vein every time, and EDTA or heparin sodium was used as anticoagulant. Blood samples were collected and placed on ice, and plasma was separated by centrifugation (centrifugation conditions: 5000 r/min, 6 min, 4° C.).
LC-MS/MS was used by the analysis department of the experimental organization to analyze the plasma samples of rats.
According to the data of blood drug concentration of the drug, the pharmacokinetic parameters AUC0→t, AUC0→∞, MRT0→∞, CMax, TMax, Vss, F, CL and T1/2 as well as their mean and standard deviation of the samples for test were calculated respectively by pharmacokinetic calculation software WinNonlin non-compartment model.
The main pharmacokinetic parameters of BLU-667, compound C2, compound C4 and compound C8 in plasma after intravenous and single oral administration of BLU-667, compound C2, compound C4 and compound C8 in SD rats were shown in Table 3

- IC50 (wild-type RET kinase): 17.4 nM
Structure (SMILES): COC1(C(=O)N[C@@H](C)c2ccc(-n3cc(F)cn3)nc2)CC=C(c2nc(Nc3cc(C)[nH]n3)c(F)cc2C#N)CC1 (stereo partly shown) [Compound C11]

Structure (SMILES): CO[C@]1(C(=O)N[C@@H](C)c2cnc(-n3cc(F)cn3)cn2)CC[C@H](c2nc(Nc3cc(C)[nH]n3)cc3cccnc32)CC1 [Compound C26]
- IC50 (Ba/F3-KIF5B-RET cells): 5.2 nM
- IC50 [1]: 2.9 nM
- IC50 [2]: 7.9 nM

- IC50 (wild-type RET kinase): 180 nM
Structure (SMILES): CO[C@]1(C(=O)N[C@@H](C)c2ccc(-n3cc(F)cn3)nc2)CC[C@@H](c2nc(Nc3cc(C)[nH]n3)cc(C)c2C#N)CC1 [Compound C16]

- IC50 (wild-type RET kinase): 2.08 nM
Structure (SMILES): CO[C@]1(C(=O)N[C@@H](C)c2ccc(-n3cc(F)cn3)nc2)CC[C@H](c2nc(Nc3cc(C)[nH]n3)cnc2C#N)CC1 [Compound C13]

- IC50 (wild-type RET kinase): 262 nM
Structure (SMILES): CO[C@]1(C(=O)N[C@@H](C)c2ccc(-n3cc(F)cn3)nc2)CC[C@@H](c2nc(Nc3cc(C)[nH]n3)c(F)cc2C#N)CC1 [Compound C10]

- IC50 (wild-type RET kinase): 16.1 nM
Structure (SMILES): COC1(C(=O)N[C@@H](C)c2ccc(-n3cc(F)cn3)nc2)CC=C(c2nc(Nc3cc(C)[nH]n3)cnc2C#N)CC1 (stereo partly shown) [Compound C12]

- IC50 (wild-type RET kinase): 5.34 nM
Structure (SMILES): COC1(C(=O)N[C@@H](C)c2ccc(-n3cc(F)cn3)nc2)CC=C(c2nc(Nc3cc(C)[nH]n3)ccc2C#N)CC1 (stereo partly shown) [Compound C7]

- IC50 (wild-type RET kinase): 100 nM
Structure (SMILES): CO[C@]1(C(=O)N[C@@H](C)c2ccc(-n3cc(F)cn3)nc2)CC[C@@H](c2nc(Nc3cc(C)[nH]n3)cc3c2N(C)CCC3)CC1 [Compound C5]

Structure (SMILES): CO[C@]1(C(=O)N[C@@H](C)c2ccc(-n3cc(F)cn3)nc2)CC[C@H](c2nc(Nc3cc(C)[nH]n3)c3ccccc3n2)CC1 [Compound C15]
- IC50 (Ba/F3-KIF5B-RET cells): 4.6 nM
- IC50 [1]: 2.8 nM
- IC50 [2]: 7.4 nM

- IC50 (wild-type RET kinase): 1.53 nM
- AUC(0-inf) [3]: 2830 ng·h/mL
- AUC(0-t) [3]: 2800 ng·h/mL
- Cmax [3]: 824 ng/mL
- Tmax [3]: 2 h
- half-life [3]: 1.95 h
- MRT ([3]; read-out: MRTINF_ obs): 2.85 h
Structure (SMILES): COC1(C(=O)N[C@@H](C)c2ccc(-n3cc(F)cn3)nc2)CC=C(c2nc(Nc3cc(C)[nH]n3)cc3cccnc23)CC1 (stereo partly shown) [Compound C8]

- IC50 (wild-type RET kinase): 241 nM
Structure (SMILES): CO[C@]1(C(=O)N[C@@H](C)c2ccc(-n3cc(F)cn3)nc2)CC[C@@H](c2nc(Nc3cc(C)[nH]n3)cc3cccnc32)CC1 [Compound C3]

- IC50 (wild-type RET kinase): 3.53 nM
Structure (SMILES): CO[C@]1(C(=O)N[C@@H](C)c2ccc(-n3cc(F)cn3)nc2)CC[C@H](c2nc(Nc3cc(C)[nH]n3)cc3c2N(C)CCC3)CC1 [Compound C6]

- IC50 (wild-type RET kinase): 1.52 nM
Structure (SMILES): CO[C@]1(C(=O)N[C@@H](C)c2ccc(-n3cc(F)cn3)nc2)CC[C@H](c2nc(Nc3cc(C)[nH]n3)cc3c2C(=O)NCC3)CC1 [Compound C18]

- IC50 (wild-type RET kinase): 146 nM
Structure (SMILES): CO[C@]1(C(=O)N[C@@H](C)c2ccc(-n3cc(F)cn3)nc2)CC[C@@H](c2nc(Nc3cc(C)[nH]n3)ccc2C#N)CC1 [Compound C1]

Structure (SMILES): CO[C@]1(C(=O)N[C@@H](C)c2ccc(-n3cnc(C)n3)nc2)CC[C@H](c2nc(Nc3cc(C)[nH]n3)cc3cccnc32)CC1 [Compound C29]
- IC50 (Ba/F3-KIF5B-RET cells): 146 nM
- IC50 [1]: 118 nM
- IC50 [2]: 252 nM

- IC50 (wild-type RET kinase): 64.7 nM
Structure (SMILES): CO[C@]1(C(=O)N[C@@H](C)c2ccc(-n3cc(F)cn3)nc2)CC[C@@H](c2nc(Nc3cc(C)[nH]n3)cc3c2C(=O)NCC3)CC1 [Compound C19]

Structure (SMILES): CO[C@]1(C(=O)N[C@@H](C)c2ccc(-n3cc(F)cn3)nc2)CC[C@H](c2nc(Nc3cc(C)[nH]n3)cc3nccnc32)CC1 [Compound C14]
- IC50 (Ba/F3-KIF5B-RET cells): 54.1 nM
- IC50 [1]: 46.8 nM
- IC50 [2]: 109 nM

- Wild-RET IC50 (wild-type RET kinase): no activity
Structure (SMILES): COC1(C(=O)N[C@@H](C)c2ccc(-n3cc(F)cn3)nc2)CC=C(c2ccc(C#N)c(Nc3cc(C)[nH]n3)n2)CC1 (stereo partly shown) [Comparative Example C32, reference compound]

Structure (SMILES): CO[C@]1(C(=O)N[C@@H](C)c2ccc(-n3cc(F)cn3)nn2)CC[C@H](c2nc(Nc3cc(C)[nH]n3)cc3cccnc32)CC1 [Compound C27]
- IC50 (Ba/F3-KIF5B-RET cells): 29.4 nM
- IC50 [1]: 23 nM
- IC50 [2]: 51.9 nM

Structure (SMILES): CO[C@]1(C(=O)N[C@@H](C)c2ccc(-n3cnc(Cl)n3)nc2)CC[C@H](c2nc(Nc3cc(C)[nH]n3)cc3cccnc32)CC1 [Compound C24]
- IC50 (Ba/F3-KIF5B-RET cells): 95.1 nM
- IC50 [1]: 84 nM
- IC50 [2]: 182 nM

- IC50 (wild-type RET kinase): 1.26 nM
Structure (SMILES): CO[C@]1(C(=O)N[C@@H](C)c2ccc(-n3cc(F)cn3)nc2)CC[C@H](c2nc(Nc3cc(C)[nH]n3)cc(C)c2C#N)CC1 [Compound C17]

- IC50 (wild-type RET kinase): 3.38 nM
Structure (SMILES): CO[C@]1(C(=O)N[C@@H](C)c2ccc(-n3cc(F)cn3)nc2)CC[C@H](c2nc(Nc3cc(C)[nH]n3)c(F)cc2C#N)CC1 [Compound C9]
